For series [1], the system named is MDA-MB-231 cells. The class given is cell-based, human. To be noted: MTS; for MDA-MB-231 cell viability: 5 µM, mean n = 3. The method, then:
(§1) The incubation was continued for 3 h.

In series [2] the test system is SK-OV-3 cells. The class given is cell-based, human. As to conditions: 5 µM, 72 h, MTS, mean n = 3. How it is done:
as §1

The subject of a further series is MCF-7 cells. Put plainly: In vitro cytotoxicity (MTS) assay in MCF-7 cells. The class given is cell-based, human. To be noted: for reduction of MCF-7 cell proliferation: mean n = 3. How it is done:
as §1

The test system of series [3] is MES-SA/MX2 cells. The series is described as follows: In vitro cytotoxicity (MTS) assay in Dox-resistant MES-SA/MX2 cells. The class given is cell-based. The method, then: as §1
The next series deals with H9C2 cells. The series is described as follows: Confocal microscopy uptake in H9C2 heart cells. The class given is cell-based, rat. As to conditions: H9C2, 5 µM (mixture: Dox 5 µM with [WR]9 5 or 10 µM), 24 h. How it is done:
(§2) MDA-MB-231, SK-OV-3, MES-SA/MX2, and H9C2 cells (7 × 10^4 cells/well) were seeded with a medium on a coverslip 24 h prior to the experiment in six well plates. After 24 h, the medium was changed with opti-MEM. The cells were treated with Dox and peptide-Dox conjugate (5 μM) in opti-MEM for 24 h. After 24 h incubation, the media were removed, and cells were washed three times with PBS in each well. Then, the cells were fixed with 3.7% formaldehyde for 10 min, followed by washing three times with PBS for 5 min (pH 7.6). DAPI (40 µL) for staining the nuclei was placed on a microscope slide, and it was covered with the coverslip with the cell-attached side facing down. The slides were left standing horizontally in a dark place with airflow to allow drying faster. The cells were photographed using Nikon Instruments A1 Confocal Laser Microscope Series (Nikon Instruments Inc, NY, USA) and NIS-Elements software (AR 4.30.02, 64 bit). The scan mode was selected as Galvano. The magnification and resolution were set at 40× and 1024, respectively.

For series [4], the system named is K562/ADR (human erythroleukemic cells). Also noted: method as in PMID 11261883. To be noted: resistant K562/ADR cells; cited from earlier work. The text has this: Different linear CPPs such as penetratin [15], TAT [18], polyarginine, and maurocalcine have been conjugated with Dox.
The test system of another series is H9C2 myocardium cells. To be noted: 24 h, MTS, n = 3. How it is done: The cells were seeded in a complete growth medium 24 h prior to the experiment. […] The incubation was continued for 3 h.
Series [5] has as its system MDA-MB-231 cells. Put plainly: FACS cellular uptake with endocytosis inhibitors in MDA-MB-231 cells. The class given is cell-based, human. To be noted: MDA-MB-231, conjugate 5 µM, 3 h, flow cytometry, n = 3. The method, then: A flow cytometry study was conducted in the presence of endocytosis inhibitors such as nystatin, chlorpromazine, chloroquine, and methyl β-cyclodextrin to determine whether the cellular uptake for the peptide-Dox was endocytosis-dependent. MDA-MB-231 (5 × 10^5 cells/well) were seeded in the medium 24 h prior to the experiment in six well plates, and after 24 h the medium was changed with opti-MEM. […] The cells were then incubated with [(WR)8WKβA]-Dox conjugate (5 µM) in the presence of inhibitors for 3 h. After 3 h incubation, the media containing the compounds were removed. Next, the cells were digested with 0.05% trypsin/EDTA (0.53 mM) for 5 min to remove any artificial surface binding, centrifuged at 2500 RPM for 5 min with Fisher Scientific accuSpin Micro 17, and then collected as the precipitant. Then the cells were washed two times with PBS, resuspended in flow cytometry buffer, and transferred to the flow cytometry tubes through the 35 µm Strainer Mesh cap. Finally, the cells were analyzed by flow cytometry (FACSCalibur: Becton Dickinson, San Jose, CA, USA) using the Propidium Iodide channel and CellQuest software. The data presented were based on the mean fluorescence intensity for 10,000 cells collected. All assays were performed in triplicate.

Series [6] has as its system MES-SA/MX2 cells. The series is described as follows: FACS cellular uptake with endocytosis inhibitors in MES-SA/MX2 cells. The class given is cell-based. To be noted: MES-SA/MX2, conjugate 5 µM, 3 h, flow cytometry, n = 3.
In series [7] the test system is MDA-MB-231 cells. The series is described as follows: Differential nuclear and cytoplasmic extraction of Dox, HPLC. The class given is cell-based, human. To be noted: 50 μM, 4 h exposure, MDA-MB-231, nuclear extract, HPLC at 490 nm. How it is done:
In order to confirm nuclear delivery of peptide-conjugated Dox, in addition to confocal microscopy, we performed a differential nuclear and cytoplasmic extraction. […] The cells were then pelleted at 2000 rpm for 5 min. After removing the supernatant, the cells were resuspended in Dounce buffer containing protease inhibitors. The cell suspension to be used was incubated on ice for 15 min before being spiked with cold 10% NP-40 and vortexed for 10 s. The suspension was centrifuged at 10,000 rpm for 10 min at 4 °C to pellet the nuclei. The supernatant was isolated for cytoplasmic extraction. The nuclear pellet was washed in cold PBS twice and centrifuged to remove the supernatant. The isolated nuclei were then lysed using RIPA buffer containing protease inhibitors. The nuclear and cytoplasmic extractions were analyzed by analytical HPLC to differentially quantify free Dox (or Dox released from the conjugates) and peptide-conjugate Dox using an Agilent Zorbax SB-C18 (4.6 × 150 mm) column. The column was equilibrated with 0.1% TFA-water (solvent A). The elution was performed at a flow rate of 1 mL/min using a gradient of acetonitrile from 0 to 35% in 50 min, with the absorbance measured at 490 nm.

The subject of series [8] is MES-SA/MX2 cells. Put plainly: Confocal microscopy internalization in MES-SA/MX2 cells. The class given is cell-based. As to conditions: MES-SA/MX2, 5 μM, 24 h. The method, then:
as §2

Series [9] concerns SK-OV-3 cells. Put plainly: Confocal microscopy uptake and retention in SK-OV-3 cells. The class given is cell-based, human. To be noted: SK-OV-3, 5 μM, 3 h then 24 h in media. The method, then:
as §2, with “The cells were treated with Dox and peptide-Dox conjugate (5 μM) in opti-MEM for 24 h.” left out

The test system of a further series is CCRF-CEM cells. As to conditions: conjugate 5 μM for 4 h at 37 °C, then drug-free medium, HPLC AUC.
A short description of the next series: in vitro. As to conditions: human, 25% human serum.
For series [10] the following is noted: molecular transporter of fluorescence-labeled phosphopeptide; cited from earlier work. The text has this: Recently, we have reported amphiphilic cyclic CPPs composed of increasing numbers of W and R residues [WR]6–9, and compared their efficiency with the previously published cyclic [WR]5 in improving the cellular uptake of cell-impermeable compounds and their molecular transporter efficiency.

[11] abbreviates: chlorpromazine 30 μM, methyl-β-cyclodextrin 2.5 mM.

Like-named read-outs stand apart in the source and are kept apart here. Peptide text beside a SMILES is read from it.

Protocol for CCRF-CEM cells: Intracellular hydrolysis of [(WR)8WKβA]-Dox and accumulation of free Dox and the peptide–Dox conjugate were determined in CCRF-CEM cells by HPLC analysis. Cells were grown with serum-free RPMI medium in 75 cm^2 culture flasks to ∼70–80% confluence (1.37 × 10^7 cells/mL). The medium was first replaced with fresh RPMI medium having [(WR)8WKβA]-Dox conjugate (5 μM). Then the cells were incubated for 4 h at 37 °C. After 4 h, the medium containing the conjugate was aspirated, and cells were washed three times with PBS before adding a fresh serum-free medium. The cells were first partitioned/transferred to culture plates (six wells) contained 1.37 × 10^7 cells per well in 5 mL of medium, then incubated for the indicated time. After incubation, the cells were collected using centrifugation. After centrifugation, the medium was removed by decantation. The cell pellets were washed with ice-cold PBS to remove any remaining medium. The cell pellets were then completely extracted with an equal volume of methanol, chloroform, and isopropanol mixture (4:3:1 v/v/v) and finally filtered through 0.2 μm filters. The relative amount of Dox and [(WR)8WKβA]-Dox concentrations in cell lysates were quantified by analytical HPLC using the water/acetonitrile solvent.

As to `COc1cccc2c1C(=O)c1c(O)c3c(c(O)c1C2=O)C[C@@](O)(C(=O)CO)C[C@@H]3O[C@H]1C[C@H](N)[C@H](O)[C@H](C)O1` [Dox, Doxorubicin], the MDA-MB-231 cell viability amounted to 79% in the series with MDA-MB-231 cells [1] (24 h) and 37% in the series on MDA-MB-231 cells [1] (72 h). Moreover, the “inhibition of MDA-MB-231 cell viability / proliferation” value in the series on MDA-MB-231 cells [1] (5 μM, 72 h) is 63%. Moreover, in the series with SK-OV-3 cells [2], the “reduction of SK-OV-3 cell viability” value is given as 35%. Besides, the “reduction of MCF-7 cell proliferation” value in the series with MCF-7 cells (5 µM, 24 h) is reported as 21%; with MCF-7 cells (5 µM, 72 h) it was 57%. In addition, the “inhibition of MES-SA/MX2 cell viability / proliferation” value in the series with MES-SA/MX2 cells [3] (5 μM, 72 h) came out at 15%. In the series on MES-SA/MX2 cells [3] (1, 5, 10 or 20 µM), the “efficiency of free Dox against MES-SA/MX2” value is “did not show significant efficiency”. Besides, the “uptake in heart cells by confocal microscopy” value in the series on H9C2 cells is “high uptake”. For the same compound, the IC50 in series [4] is 65 ± 7 µM.
Consider `COc1cccc2c1C(=O)c1c(O)c3c(c(O)c1C2=O)C[C@@](O)(C(=O)COC(=O)CCCC(=O)NCCC(=O)NCCCC[C@@H]1NC(=O)[C@H](Cc2c[nH]c4ccccc24)NC(=O)[C@H](CCCNC(=N)N)NC(=O)[C@H](Cc2c[nH]c4ccccc24)NC(=O)[C@H](CCCNC(=N)N)NC(=O)[C@H](Cc2c[nH]c4ccccc24)NC(=O)[C@H](CCCNC(=N)N)NC(=O)[C@H](Cc2c[nH]c4ccccc24)NC(=O)[C@H](CCCNC(=N)N)NC(=O)[C@H](Cc2c[nH]c4ccccc24)NC(=O)[C@H](CCCNC(=N)N)NC(=O)[C@H](Cc2c[nH]c4ccccc24)NC(=O)[C@H](CCCNC(=N)N)NC(=O)[C@H](Cc2c[nH]c4ccccc24)NC(=O)[C@H](CCCNC(=N)N)NC(=O)[C@H](Cc2c[nH]c4ccccc24)NC(=O)[C@H](CCCNC(=N)N)NC(=O)[C@H](Cc2c[nH]c4ccccc24)NC1=O)C[C@@H]3O[C@H]1C[C@H](N)[C@H](O)[C@H](C)O1` [[(WR)8WKβA]-Dox conjugate] (HELM PEPTIDE1{K.W.R.W.R.W.R.W.R.W.R.W.R.W.R.W.R.W}|PEPTIDE2{[COc1cccc2c1C(=O)c1c(O)c3c(c(O)c1C2=O)C[C@@](O)(C(=O)COC(=O)CCCC(=O)[*:2])C[C@@H]3O[C@H]1C[C@H](N)[C@H](O)[C@H](C)O1].[bAla]}$PEPTIDE1,PEPTIDE2,1:R3-2:R2|PEPTIDE1,PEPTIDE1,1:R1-18:R2$$$V2.0), for which the “reduction of MCF-7 cell proliferation” value is 28% in the series on MCF-7 cells (1 µM, 24 h); 70% in the series with MCF-7 cells (1 µM, 72 h); 55% in the series on MCF-7 cells (5 µM, 24 h); 56% in the series with MCF-7 cells (10 µM, 24 h); 77% with MCF-7 cells (10 µM, 72 h). For the same compound, the “cytotoxicity in rat H9C2 myocardium cells” value is “comparable to Dox” in the series with H9C2 myocardium cells (10 µM); “no significant cytotoxicity” with H9C2 myocardium cells (1 and 5 µM). Besides, the “cellular uptake in presence of chlorpromazine and methyl-β-cyclodextrin” value with MDA-MB-231 cells [5] (setting [11]) is given as “slight uptake reduction”. In addition, the “cellular uptake in presence of nystatin and chloroquine” value in the series on MDA-MB-231 cells [5] (nystatin 50 μg/mL, chloroquine 100 μM, 30 min preincubation) is on record as “not reduced significantly”; in the series on MES-SA/MX2 cells [6] (nystatin 50 μg/mL, chloroquine 100 μM), “not reduced significantly”. Also, in the series with MES-SA/MX2 cells [6] (setting [11]), the “uptake reduction in presence of chlorpromazine and methyl-β-cyclodextrin” value is on record as “statistically significant”. The “total concentration of Dox (conjugated and released) in the nucleus” value in the series on MDA-MB-231 cells [7] is recorded as “higher than free Dox”. Further, the “uptake in heart cells by confocal microscopy” value in the series on H9C2 cells was “did not show any significant uptake”. The “internalization into resistant cells overexpressing P-gp” value with MES-SA/MX2 cells [8] is “internalized”. Further, the “cellular uptake, retention and localization of Dox” value in the series with SK-OV-3 cells [9] was “increased the cellular uptake and retention of Dox”. Moreover, the “free Dox released intracellularly” value with CCRF-CEM cells (within 12 h) is on record as “More than 36%”; in the series on CCRF-CEM cells (within 72 h), “approximately 100%”. Further, the metabolised at 1 h, 5 µM in “in vitro” came to 7%. Also, the metabolised at 6 h, 5 µM in the series “in vitro” was around 50%. In “in vitro”, this compound came in with a metabolised at 12 h, 5 µM above 80%. In “in vitro”, the share remaining at 24 h, 5 µM came out at 6%.
Regarding `N=C(N)NCCC[C@@H]1NC(=O)[C@H](Cc2c[nH]c3ccccc23)NC(=O)[C@H](CCCNC(=N)N)NC(=O)[C@H](Cc2c[nH]c3ccccc23)NC(=O)[C@H](CCCNC(=N)N)NC(=O)[C@H](Cc2c[nH]c3ccccc23)NC(=O)[C@H](CCCNC(=N)N)NC(=O)[C@H](Cc2c[nH]c3ccccc23)NC(=O)[C@H](CCCNC(=N)N)NC(=O)[C@H](Cc2c[nH]c3ccccc23)NC(=O)[C@H](CCCNC(=N)N)NC(=O)[C@H](Cc2c[nH]c3ccccc23)NC(=O)[C@H](CCCNC(=N)N)NC(=O)[C@H](Cc2c[nH]c3ccccc23)NC(=O)[C@H](CCCNC(=N)N)NC(=O)[C@H](Cc2c[nH]c3ccccc23)NC(=O)[C@H](CCCNC(=N)N)NC(=O)[C@H](Cc2c[nH]c3ccccc23)NC1=O` [[WR]9] (HELM PEPTIDE1{R.W.R.W.R.W.R.W.R.W.R.W.R.W.R.W.R.W}$PEPTIDE1,PEPTIDE1,1:R1-18:R2$$$V2.0), the “effect of [WR]9 alone on MCF-7 cell survival” value with MCF-7 cells (different concentrations (1, 5, 10 μM)) is “no significant effect on cell survival”. Also, the “antiproliferative effect of [WR]9 alone on MES-SA/MX2” value in the series with MES-SA/MX2 cells [3] (24 and 72 h) is recorded as “no significant antiproliferative effect”. Further, in series [10], the “enhancement of cellular uptake of F′-GpYEEI” value was 20 fold.
